# Assay results published in US12077503B2, “Substituted cyclic amides and their use as herbicides” (FMC CORPORATION, priority 2015, dated 2024).
# Tests used:
# Type in all cases: in vivo
# [1] = test system: redroot pigweed (Amaranthus retroflexus); assay: Test G Post-Emergence Protocol; conditions: Amaranthus retroflexus, post-emergence, 312 h; for pest or weed control at 15.625 g/ha: 15.625 g ai/ha, evaluated after 13 days (100=total damage to plant; 0=no damage to plant), read-out: Pigweed, Redroot damage rating; for pest or weed control at 62.5 g/ha: 62.5 g ai/ha, read-out: Pigweed, Redroot damage rating (100=total damage to plant; 0=no damage to plant); for pest or weed control at 62.5 g/ha / pest or weed control at 250 g/ha: evaluated after 13 days; for pest or weed control at 250 g/ha: 250 g ai/ha, read-out: damage to plant, Pigweed, Redroot (100=total damage to plant; 0=no damage to plant)
# Outline: (§1)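 Seedlings grown 8 days in soil in a glasshouse (24/16 °C day/night, 14 h light, 65% humidity) were sprayed post-emergence with compound in acetone/water 50:50 plus 0.5% Tween 20 at 15.625, 62.5 or 250 g/ha. Damage was scored after 13 days on a 0–100 scale (100 = total damage).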
# [2] = test system: giant foxtail (Setaria faberi); assay: Test G Post-Emergence Protocol; conditions: Setaria faberi, post-emergence, 312 h; for pest or weed control at 15.625 g/ha: 15.625 g ai/ha, evaluated after 13 days (100=total damage to plant; 0=no damage to plant), read-out: Foxtail, Giant damage rating; for pest or weed control at 62.5 g/ha: 62.5 g ai/ha, read-out: Foxtail, Giant damage rating (100=total damage to plant; 0=no damage to plant); for pest or weed control at 62.5 g/ha / pest or weed control at 250 g/ha: evaluated after 13 days; for pest or weed control at 250 g/ha: 250 g ai/ha, read-out: damage to plant, Foxtail, Giant (100=total damage to plant; 0=no damage to plant)
# Outline: as §1
# [3] = test system: ivy-leaved morning glory (Ipomoea hederacea); assay: Test G Post-Emergence Protocol; conditions: Ipomoea, post-emergence, 312 h; for pest or weed control at 15.625 g/ha: 15.625 g ai/ha, evaluated after 13 days (100=total damage to plant; 0=no damage to plant), read-out: Morningglory, Ivy-leaved damage rating; for pest or weed control at 62.5 g/ha: 62.5 g ai/ha, read-out: Morningglory, Ivy-leaved damage rating (100=total damage to plant; 0=no damage to plant); for pest or weed control at 62.5 g/ha / pest or weed control at 250 g/ha: evaluated after 13 days; for pest or weed control at 250 g/ha: 250 g ai/ha, read-out: damage to plant, Morningglory, Ivy-leaved (100=total damage to plant; 0=no damage to plant)
# Outline: as §1
# [4] = test system: corn (Zea mays); assay: Test G Post-Emergence Protocol; conditions: Zea mays, post-emergence, 312 h; for plant injury at 15.625 g/ha: 15.625 g ai/ha, evaluated after 13 days (100=total damage to plant; 0=no damage to plant), read-out: Corn damage rating; for plant injury at 62.5 g/ha: 62.5 g ai/ha, read-out: Corn damage rating (100=total damage to plant; 0=no damage to plant); for plant injury at 62.5 g/ha / plant injury at 250 g/ha: evaluated after 13 days; for plant injury at 250 g/ha: 250 g ai/ha, read-out: damage to plant, Corn (100=total damage to plant; 0=no damage to plant)
# Outline: as §1
# [5] = test system: velvetleaf (Abutilon theophrasti); assay: Test G Post-Emergence Protocol; conditions: Abutilon theophrasti, post-emergence, 312 h; for pest or weed control at 15.625 g/ha: 15.625 g ai/ha, evaluated after 13 days (100=total damage to plant; 0=no damage to plant), read-out: Velvetleaf damage rating; for pest or weed control at 62.5 g/ha: 62.5 g ai/ha, read-out: Velvetleaf damage rating (100=total damage to plant; 0=no damage to plant); for pest or weed control at 62.5 g/ha / pest or weed control at 250 g/ha: evaluated after 13 days; for pest or weed control at 250 g/ha: 250 g ai/ha, read-out: damage to plant, Velvetleaf (100=total damage to plant; 0=no damage to plant)
# Outline: as §1
# [6] = test system: barnyardgrass (Echinochloa crus-galli); assay: Test G Post-Emergence Protocol; conditions: Echinochloa crus-galli, post-emergence, 312 h; for pest or weed control at 15.625 g/ha: 15.625 g ai/ha, evaluated after 13 days (100=total damage to plant; 0=no damage to plant), read-out: Barnyardgrass damage rating; for pest or weed control at 62.5 g/ha: 62.5 g ai/ha, read-out: Barnyardgrass damage rating (100=total damage to plant; 0=no damage to plant); for pest or weed control at 62.5 g/ha / pest or weed control at 250 g/ha: evaluated after 13 days; for pest or weed control at 250 g/ha: 250 g ai/ha, read-out: damage to plant, Barnyardgrass (100=total damage to plant; 0=no damage to plant)
# Outline: as §1
# [7] = test system: redroot pigweed (Amaranthus retroflexus); assay: Test G Pre-Emergence Protocol; conditions: Amaranthus retroflexus, pre-emergence, 312 h, evaluated after 13 days; for pest or weed control at 15.625 g/ha: 15.625 g ai/ha; for pest or weed control at 15.625 g/ha / pest or weed control at 250 g/ha: read-out: Pigweed, Redroot damage rating (100=total damage to plant; 0=no damage to plant); for pest or weed control at 62.5 g/ha: 62.5 g ai/ha, 100=total damage to plant, 0=no damage to plant, read-out: plant damage rating, Pigweed, Redroot; for pest or weed control at 250 g/ha: 250 g ai/ha
# Outline: (§2)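 Visual injury (0–100) at day 13 after a single pre-emergence spray. Rates: 15.625, 62.5, 250 g/ha in acetone–water 50:50 with 0.5% Tween 20. Growth conditions: 24/16° C, 14 h light, 65% humidity.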
# [8] = test system: giant foxtail (Setaria faberi); assay: Test G Pre-Emergence Protocol; conditions: Setaria faberi, pre-emergence, 312 h, evaluated after 13 days; for pest or weed control at 15.625 g/ha: 15.625 g ai/ha; for pest or weed control at 15.625 g/ha / pest or weed control at 250 g/ha: read-out: Foxtail, Giant damage rating (100=total damage to plant; 0=no damage to plant); for pest or weed control at 62.5 g/ha: 62.5 g ai/ha, 100=total damage to plant, 0=no damage to plant, read-out: plant damage rating, Foxtail, Giant; for pest or weed control at 250 g/ha: 250 g ai/ha
# Outline: as §2
# [9] = test system: ivy-leaved morning glory (Ipomoea hederacea); assay: Test G Pre-Emergence Protocol; conditions: Ipomoea, pre-emergence, 312 h, evaluated after 13 days; for pest or weed control at 15.625 g/ha: 15.625 g ai/ha, read-out: Morning-glory, Ivy-leaved damage rating (100=total damage to plant; 0=no damage to plant); for pest or weed control at 62.5 g/ha: 62.5 g ai/ha, 100=total damage to plant, 0=no damage to plant, read-out: plant damage rating, Morningglory, Ivy-leaved; for pest or weed control at 250 g/ha: 250 g ai/ha, read-out: Morningglory, Ivy-leaved damage rating (100=total damage to plant; 0=no damage to plant)
# Outline: as §2
# [10] = test system: corn (Zea mays); assay: Test G Pre-Emergence Protocol; conditions: Zea mays, pre-emergence, 312 h, evaluated after 13 days; for plant injury at 15.625 g/ha: 15.625 g ai/ha; for plant injury at 15.625 g/ha / plant injury at 250 g/ha: read-out: Corn damage rating (100=total damage to plant; 0=no damage to plant); for plant injury at 62.5 g/ha: 62.5 g ai/ha, 100=total damage to plant, 0=no damage to plant, read-out: plant damage rating, Corn; for plant injury at 250 g/ha: 250 g ai/ha
# Outline: as §2
# [11] = test system: velvetleaf (Abutilon theophrasti); assay: Test G Pre-Emergence Protocol; conditions: Abutilon theophrasti, pre-emergence, 312 h, evaluated after 13 days; for pest or weed control at 15.625 g/ha: 15.625 g ai/ha; for pest or weed control at 15.625 g/ha / pest or weed control at 250 g/ha: read-out: Velvetleaf damage rating (100=total damage to plant; 0=no damage to plant); for pest or weed control at 62.5 g/ha: 62.5 g ai/ha, 100=total damage to plant, 0=no damage to plant, read-out: plant damage rating, Velvetleaf; for pest or weed control at 250 g/ha: 250 g ai/ha
# Outline: as §2
# [12] = test system: barnyardgrass (Echinochloa crus-galli); assay: Test G Pre-Emergence Protocol; conditions: Echinochloa crus-galli, pre-emergence, 312 h, evaluated after 13 days; for pest or weed control at 15.625 g/ha: 15.625 g ai/ha, read-out: Barnyard grass damage rating (100=total damage to plant; 0=no damage to plant); for pest or weed control at 62.5 g/ha: 62.5 g ai/ha, 100=total damage to plant, 0=no damage to plant, read-out: plant damage rating, Barnyardgrass; for pest or weed control at 250 g/ha: 250 g ai/ha, read-out: Barnyardgrass damage rating (100=total damage to plant; 0=no damage to plant)
# Outline: as §2
smiles,measurement,setting,value
Cc1nc(F)ccc1[C@@H]1CN(C)C(=O)[C@H]1C(=O)Nc1cccc(F)c1F (racemic) [Compound 1492],pest or weed control at 15.625 g/ha,[1],0%
same,pest or weed control at 62.5 g/ha,[1],0%
same,pest or weed control at 250 g/ha,[1],0%
same,pest or weed control at 15.625 g/ha,[2],0%
same,pest or weed control at 62.5 g/ha,[2],40%
same,pest or weed control at 250 g/ha,[2],60%
same,pest or weed control at 15.625 g/ha,[3],0%
same,pest or weed control at 62.5 g/ha,[3],0%
same,pest or weed control at 250 g/ha,[3],0%
same,plant injury at 15.625 g/ha,[4],0%
same,plant injury at 62.5 g/ha,[4],0%
same,plant injury at 250 g/ha,[4],0%
same,pest or weed control at 15.625 g/ha,[5],0%
same,pest or weed control at 62.5 g/ha,[5],0%
same,pest or weed control at 250 g/ha,[5],20%
same,pest or weed control at 15.625 g/ha,[6],0%
same,pest or weed control at 62.5 g/ha,[6],30%
same,pest or weed control at 250 g/ha,[6],60%
same,pest or weed control at 15.625 g/ha,[7],0%
same,pest or weed control at 62.5 g/ha,[7],0%
same,pest or weed control at 250 g/ha,[7],0%
same,pest or weed control at 15.625 g/ha,[8],0%
same,pest or weed control at 62.5 g/ha,[8],20%
same,pest or weed control at 250 g/ha,[8],80%
same,pest or weed control at 15.625 g/ha,[9],0%
same,pest or weed control at 62.5 g/ha,[9],0%
same,pest or weed control at 250 g/ha,[9],0%
same,plant injury at 15.625 g/ha,[10],0%
same,plant injury at 62.5 g/ha,[10],0%
same,plant injury at 250 g/ha,[10],0%
same,pest or weed control at 15.625 g/ha,[11],0%
same,pest or weed control at 62.5 g/ha,[11],0%
same,pest or weed control at 250 g/ha,[11],0%
same,pest or weed control at 15.625 g/ha,[12],0%
same,pest or weed control at 62.5 g/ha,[12],20%
same,pest or weed control at 250 g/ha,[12],80%
Cc1cnc(NC(=O)[C@@H]2C(=O)N(C)C[C@H]2c2ccc(C(F)(F)F)cc2)nc1 (racemic) [Compound 1575],pest or weed control at 15.625 g/ha,[1],0%
same,pest or weed control at 62.5 g/ha,[1],0%
same,pest or weed control at 250 g/ha,[1],0%
same,pest or weed control at 15.625 g/ha,[2],0%
same,pest or weed control at 62.5 g/ha,[2],0%
same,pest or weed control at 250 g/ha,[2],0%
same,pest or weed control at 15.625 g/ha,[3],0%
same,pest or weed control at 62.5 g/ha,[3],0%
same,pest or weed control at 250 g/ha,[3],0%
same,plant injury at 15.625 g/ha,[4],0%
same,plant injury at 62.5 g/ha,[4],0%
same,plant injury at 250 g/ha,[4],0%
same,pest or weed control at 15.625 g/ha,[5],0%
same,pest or weed control at 62.5 g/ha,[5],0%
same,pest or weed control at 250 g/ha,[5],0%
same,pest or weed control at 15.625 g/ha,[6],0%
same,pest or weed control at 62.5 g/ha,[6],0%
same,pest or weed control at 250 g/ha,[6],0%
same,pest or weed control at 15.625 g/ha,[7],0%
same,pest or weed control at 62.5 g/ha,[7],0%
same,pest or weed control at 250 g/ha,[7],0%
same,pest or weed control at 15.625 g/ha,[8],0%
same,pest or weed control at 62.5 g/ha,[8],0%
same,pest or weed control at 250 g/ha,[8],0%
same,pest or weed control at 15.625 g/ha,[9],0%
same,pest or weed control at 62.5 g/ha,[9],0%
same,pest or weed control at 250 g/ha,[9],0%
same,plant injury at 15.625 g/ha,[10],0%
same,plant injury at 62.5 g/ha,[10],0%
same,plant injury at 250 g/ha,[10],0%
same,pest or weed control at 15.625 g/ha,[11],0%
same,pest or weed control at 62.5 g/ha,[11],0%
same,pest or weed control at 250 g/ha,[11],0%
same,pest or weed control at 15.625 g/ha,[12],0%
same,pest or weed control at 62.5 g/ha,[12],0%
same,pest or weed control at 250 g/ha,[12],0%
